Data on one compound can be found in PMC6829886, “Inhibition of Non-Small Cell Lung Cancer Cells by Oxy210, an Oxysterol-Derivative that Antagonizes TGFβ and Hedgehog Signaling” (Cells, 2019).

One data set has as its system TβRI. Kind of data set: Smad responsive luciferase reporter (CAGA12-Luc) in R1BL17 cells transfected with TGFβRI (WT or TD mutant). Type of data set: cell-based, mink. Conditions: 20 h. Background: In a reporter assay the amount or activity of a reporter protein is the signal.
Data set [1] has as its system TGFβ induced activity of SBE-luciferase reporter. In words: SBE-luciferase (Smad response-element) reporter assay in NIH3T3-E1 cells. The format is cell-based, mouse. The settings on record: 48 hrs.
Experimental: NIH3T3-E1 cells cultured in 24 well-plates at 90% confluence were transiently transfected with 0.1 μg of Smad response-element reporter (SBE-Luciferase) plasmid (Qiagen), or with 0.1 μg of Gli response-element reporter (pGL3b-8xGli-Luciferase) plasmid, and 10 ng of pSV40-Renilla-Luciferase plasmid (Promega, Madison, WI, USA) with or without co-transfection with 10ng of Gli1 overexpression vector, pSRα-Gli1 using a Lipofectamine LTX Plus transfection reagent, as previously described [23]. […] 6 hrs after transfection, cells were treated with test agents for 72 h. […] Twenty-four hours after transfection, cells were treated with test agents for 20 h. Then the firefly and Renilla luciferase activities were measured using a dual luciferase kit (Promega) and a GloMax-96 Microplate Luminometer (Promega) or a plate reader-SpectraMax iD3 (Molecular Devices, San Jose, CA, USA). The firefly luciferase activities were normalized to the Renilla luciferase activities.
(d) NIH3T3 cells cultured in 24 well-plates were transfected with a Smad response element reporter (SBE-Luciferase) plasmid and a pTK-Renilla-Luciferase plasmid. 6 hrs after transfection, cells were treated with the test agents as indicated for 48 hrs. Luciferase activity was measured and normalized to the Renilla luciferase activity.
Data set [2] deals with phosphorylation of Smad2 and Smad3 in A549 cells. Kind of data set: Western blot of TGFβ-induced Smad2/Smad3 phosphorylation. The settings on record: 10 μM pretreatment 3 h, TGFβ 4 ng/mL. The format is cell-based, human. How it is done: A549 cells were pretreated with DMSO, Oxy186 (10 μM) or Oxy210 (10 μM) for 3 h, then treated with TGFβ (4 ng/mL) for the indicated times. After treatment, the cells were harvested in Triton lysis buffer (1% Triton X-100, 25 mM Tris-HCl, pH 7.4, 300 mM NaCl with protease and phosphatase inhibitors), and the supernatant was collected as cell lysates after centrifugation (15,000× g, 25 min at 4 °C). A Bradford assay was used to measure the protein concentration. […] proteins of each sample were loaded into the wells of an 8% SDS-PAGE gel, and the proteins were transferred to a PVDF membrane after SDS-PAGE gel separation. […] Densitometry readings were performed with ImageJ software (Version 1.52a, NIH, Bethesda, MD, USA, see Supplementary Materials).
Figure 11 Inhibition of TGFβ-induced Smad2/3 phosphorylation and transcriptional activity. […] Luciferase activity was measured and normalized to the Renilla luciferase activity. […]
(In general: Immunoblotting shows a protein as a band on a membrane.)

Data set [3] is described as follows: Metabolic stability in mouse liver microsomes. Type of data set: in vitro ADME.
Data set [4] is described as follows: Metabolic stability in human liver microsomes. The format is in vitro ADME.
In a further data set the test system is H2030 cells. In words: TGFβ-induced EMT gene expression in H2030 cells. Type of data set: cell-based, human. The settings on record: 48 h. How it is done:
Total RNA was extracted with the RNeasy Plus Mini Kit from Qiagen (Hilden, Germany) according to the manufacturer’s instructions. One microgram of RNA was reverse-transcribed using an iScript Reverse Transcription Supermix from Bio-Rad Laboratories (Hercules, CA, USA) to make single-stranded cDNA. The cDNAs were then mixed with Qi SYBR Green Supermix (Bio-Rad) for quantitative RT-PCR assay using a Bio-Rad I-cycler IQ quantitative thermocycler. All PCR samples were prepared in triplicate wells in a 96-well plate. After 40 cycles of PCR, melt curves were examined in order to ensure primer specificity. Fold changes in gene expression were calculated using the ΔΔCt method. Primers used for mouse were as follows: Oaz1 (5′-CCACTGCTTCGCCAGAGAG-3′) and (5′-CCCGGACCCAGGTTACTA-3′), Gli1 (5′- […]-3′ and 5′- GCT GATCCAGCCTAAGGTTCTC-3′), Ptch1 (5′-CCATCGGCGACAAGAACC-3′ and 5′-[…]-3′), Thbs1 (5′-[…]-3′ and 5′-CGGGGATCAGGTTGGCATT-3′), Cryab (5′-[…]-3′ and 5′-[…]-3′), Egr2 (5′-[…]-3′ and 5′-[…]-3′), CTGF (5′-GGGCCTCTTCTGCGATTTC-3′ and 5′-[…]-3′). […]
Figure 8 Inhibition of TGFβ-induced EMT in NSCLC cells. […] After 48 h, RNA was extracted and analyzed by Q-RT-PCR for the expression of the genes as indicated and normalized to GAPDH expression. […]

By amount remaining is commonly meant what is left of the initial amount, in per cent. The term half-life denotes the time needed for the level to fall by half in the phase considered. For the compound `C[C@]12CC[C@H]3[C@@H](CC=C4C[C@@H](O)CC[C@@]43C)[C@@H]1CC[C@@H]2[C@](C)(O)CCc1cccnc1` [Oxy210, (3S,8S,9S,10R,13S,14S,17S)-17-((R)-2-hydroxy-4-(pyridin-3-yl)butan-2-yl)-10,13-dimethyl-2,3,4,7,8,9,10,11,12,13,14,15,16,17-tetradecahydro-1H-cyclopenta[a]phenanthren-3-ol], the “activity of Smad responsive reporter stimulated by TGFβ-activated RI or ligand independent RI_TD” value in the data set with TβRI is given as “significantly inhibited”. In addition, the “TGFβ induced activity of SBE-luciferase reporter” value in data set [1] was “significantly inhibited”. Moreover, the “TGFβ-induced phosphorylation of Smad2 and Smad3” value in data set [2] is recorded as “robustly inhibited”. The fraction remaining at 1 h in data set [3] (read-out: MLM, % Remaining after 60 min) was 61%; in data set [4] (read-out: HLM, % Remaining after 60 min) it was 55%. Besides, the half-life in data set [3] (read-out: MLM, Half-Life) came out at 1.4 h; in data set [4] (human, liver microsomes, read-out: HLM, Half-Life) it was 1.15 h. Further, in the data set on H2030 cells, the “genes associated with TGFβ-induced EMT” value is given as “complete suppression”.
